Values joined by “and” are separate entries in the source; they are usually repeats but may differ in a detail not shown here. Identical values can stand only once. Counter-ions that a name gives are not always drawn.
System: 5-HT release in the rat prefrontal cortex
Experiment: Microdialysis: 5-HT release in prefrontal cortex after I.P. administration
Type: in vivo
Settings: for 5-HT (% of respective basal), individual animal: 0.1 mg/kg I.P., c2-c9 = R#13,14,20,19,25,26,31,32; for 5-HT (% of respective basal), individual animal / 5-HT release, individual animals: hydrochloride; for 5-HT release, MEAN / 5-HT release, individual animals: 0.3 mg/kg I.P.; for 5-HT release, MEAN: n = 8; for 5-HT release, individual animals: one column per animal R#11,12,18,23,29,30,17,24
Method: The aim of the study was to evaluate, using microdialysis, the effects of an intraperitoneal (I.P.) administration in rats of three different doses of SON-117 on dopamine and its metabolites, serotonin and its metabolite (5-HIAA), and norepinephrine levels in prefrontal cortex.
Thirty-two adult male Wistar rats were used for the whole study (4 groups of eight animals planned for the study, Table 1).
Surgery was performed on rats weighing about 300 g at the beginning of the experiments. Rats were anaesthetized with Ketamine (50 mg/kg) & Xylazine (15 mg/kg) by intramuscular administration. The animals were placed in a stereotaxic apparatus in the flat-skull position at a constant setting of −3.3 mm between ear bars and the incisor bar. The animals were treated with a local anesthesic (xylocaine 1%, Astra Zeneca) and an analgesic (Temgesic, from Schering Plough, 0.05 mg/kg, s.c.). A rostrocaudal midline incision was made with a lancet to expose the dorsal skull surface. The “stereotaxic zero” was defined by the Bregma in accordance with Paxinos and Watson's atlas (1986). A hole was drilled in the skull with a drill and the meninges were pierced with a sterile needle to implant a CMA12 guide cannula which later received the dialysis probe.
Coordinates used for implanting guide cannula in prefrontal cortex from Bregma were anteroposterior 3.7 mm, mediolateral 0.8 mm, and dorsoventral −2 mm (top of the probe was at −5 mm). The guide cannula was fixed to the skull with two stainless steel screws (1.88 mm outside diameter) anchored. An application of dental cement was added. A plastic collar allowed each animal to be tethered to a Swivel assembly of the CMA 120 awake animal system. Following surgery, rats were kept in individual cages and allowed to recover for a minimum of 3-5 days before the experimentation. The rats were handled and put in plastic bowl for 10 min at least every day to habituate the animals to their new environment for the dialysis. An I.P. administration with saline was also performed every day.
Dialysis probes (CMA12/3 mm, membrane, 20 kD cut-off, Carnegie Medicine, Stockholm, Sweden), were carefully washed before inserting into the guide cannula. The wash was performed with the artificial cerebrospinal fluid (aCSF) medium (NaCl 147 mM, KCl 2.7 mM, CaCl2 1.2 mM, MgCl2 0.85 mM) at room temperature. The dialysis system was then equilibrated at 20° C. at a perfusion rate of 1 μl/min with a Carnegie pump (CMA100). All catheters (FEP tubing, internal volume of 1.2 μl/10 cm, and tubing adaptors) used for microdialysis were treated in the same conditions.
The probes duly prepared were inserted into the guide cannula and the CMA120 Swivel assembly secured to the animal using a plastic collar. Flow through the dialysis probe with aCSF was maintained at a rate of 1 μl/min during the whole experimentation. The first four fractions (corresponding to 2 hours) were discarded to avoid the effects of parenchymal disturbance and to ensure that an approximate steady-state level was reached. Fractions were then collected over a period of 8.5 h during which time the animals remained quiet. The dialysates were automatically collected with an autosampler (microfraction collector CMA 140, Carnegie Medicin) and stored at −80° C. until analysis. […] Perfusion was then maintained for 7 hours with aCSF. The dialysates (30 μl) were collected into 300 μl vials, transferred into dry ice and then kept frozen (−80° C.) until analysis. Frozen samples were shipped to a partner for analysis. At the end of the microdialysis study, a PBS with colored ink was perfused through the probe in order to visualize the dialyzed area.
Catecholamine assay: Concentrations of dopamine, DOPAC, HVA, 5-HIAA, 5-HT, and norepinephrin were determined for each sample by HPLC coupled with electrochemical detection. […]

SMILES: Cc1nnc(-c2cc3c(OC[C@@H](O)CN4CCC(c5ccc(Cl)c(Cl)c5)CC4)cccc3o2)o1 [SON-117, (S)-1-(4-(3,4-dichlorophenyl)piperidino)-3-(2-(5-methyl-1,3,4-oxadiazol-2-yl)benzo(b)furan-4-yloxy)-2-propanol hydrochloride]
- 5-HT (% of respective basal), individual animal (T30-T1 h): 69.00 % of respective basal and 117.47 % of respective basal and 153.30 % of respective basal and 119.68 % of respective basal and 228.97 % of respective basal and 127.98 % of respective basal and 113.81 % of respective basal and 57.12 % of respective basal
- 5-HT (% of respective basal), individual animal (T1 h 30-T2 h): 92.30 % of respective basal and 410.73 % of respective basal and 162.34 % of respective basal and 123.16 % of respective basal and 77.29 % of respective basal and 149.14 % of respective basal and 262.61 % of respective basal and 62.56 % of respective basal
- 5-HT (% of respective basal), individual animal (T1 h-T1 h 30): 84.80 % of respective basal and 173.62 % of respective basal and 140.43 % of respective basal and 113.99 % of respective basal and 98.07 % of respective basal and 572.83 % of respective basal and 162.09 % of respective basal and 62.45 % of respective basal
- 5-HT (% of respective basal), individual animal (T2 h 30-T3 h): 51.79 % of respective basal and 182.3 % of respective basal and 109.29 % of respective basal and 102.05 % of respective basal and 101.27 % of respective basal and 528.93 % of respective basal and 86.68 % of respective basal and 564.06 % of respective basal
- 5-HT (% of respective basal), individual animal (T2 h-T2 h 30): 82.11 % of respective basal and 59.17 % of respective basal and 129.41 % of respective basal and 112.33 % of respective basal and 523.12 % of respective basal and 458.59 % of respective basal and 127.80 % of respective basal and 1473.07 % of respective basal
- 5-HT (% of respective basal), individual animal (T3 h 30-T4 h): 74.33 % of respective basal and 66.30 % of respective basal and 153.79 % of respective basal and 155.51 % of respective basal and 132.93 % of respective basal and 131.96 % of respective basal and 93.88 % of respective basal and 405.95 % of respective basal
- 5-HT (% of respective basal), individual animal (T3 h-T3 h 30): 72.21 % of respective basal and 249.58 % of respective basal and 128.14 % of respective basal and 138.05 % of respective basal and 139.82 % of respective basal and 122.70 % of respective basal and 103.66 % of respective basal and 298.06 % of respective basal
- 5-HT (% of respective basal), individual animal (T4 h 30-T5 h): 79.25 % of respective basal and 111.21 % of respective basal and 188.06 % of respective basal and 105.16 % of respective basal and 99.59 % of respective basal and 221.4 % of respective basal and 113.08 % of respective basal and 1455.86 % of respective basal
- 5-HT (% of respective basal), individual animal (T4 h-T4 h 30): 10.23 % of respective basal and 242.01 % of respective basal and 138.36 % of respective basal and 81.92 % of respective basal and 75.44 % of respective basal and 312.84 % of respective basal and 89.43 % of respective basal and 1851.01 % of respective basal
- 5-HT (% of respective basal), individual animal (T5 h 30-T6 h): 18.22 % of respective basal and 541.94 % of respective basal and 112.81 % of respective basal and 91.86 % of respective basal and 67.97 % of respective basal and 390.29 % of respective basal and 95.06 % of respective basal and 682.45 % of respective basal
- 5-HT (% of respective basal), individual animal (T5 h-T5 h 30): 106.82 % of respective basal and 610.15 % of respective basal and 166.13 % of respective basal and 112.99 % of respective basal and 48.55 % of respective basal and 433.73 % of respective basal and 103.27 % of respective basal and 900.33 % of respective basal
- 5-HT (% of respective basal), individual animal (T6 h 30-T7 h): 76.67 % of respective basal and 764.86 % of respective basal and 75.95 % of respective basal and 109.17 % of respective basal
- 5-HT (% of respective basal), individual animal (T6 h-T6 h 30): 98.17 % of respective basal and 780.23 % of respective basal and 117.32 % of respective basal and 105.66 % of respective basal and 44.34 % of respective basal and 387.64 % of respective basal and 93.11 % of respective basal and 410.53 % of respective basal
- 5-HT release, MEAN (T0-T30 min): 119.65 % of respective basal
- 5-HT release, MEAN (T30-T1 h): 111.24 % of respective basal
- 5-HT release, individual animals (T30-T1 h): 160.62 % of respective basal and 82.62 % of respective basal and 90.53 % of respective basal and 121.61 % of respective basal and 144.48 % of respective basal and 187.01 % of respective basal and 55.67 % of respective basal and 47.37 % of respective basal
- 5-HT release, MEAN (T1 h 30-T2 h): 114.14 % of respective basal
- 5-HT release, individual animals (T1 h 30-T2 h): 181.24 % of respective basal and 97.85 % of respective basal and 76.79 % of respective basal and 83.68 % of respective basal and 125.63 % of respective basal and 123.37 % of respective basal and 24.18 % of respective basal and 200.38 % of respective basal
- 5-HT release, MEAN (T1 h-T1 h 30): 144.23 % of respective basal
- 5-HT release, individual animals (T1 h-T1 h 30): 149.89 % of respective basal and 128.02 % of respective basal and 96.66 % of respective basal and 76.75 % of respective basal and 140.12 % of respective basal and 235.56 % of respective basal and 63.72 % of respective basal and 263.12 % of respective basal
- 5-HT release, MEAN (T2 h 30-T3 h): 126.37 % of respective basal
- 5-HT release, individual animals (T2 h 30-T3 h): 96.77 % of respective basal and 104.38 % of respective basal and 101.02 % of respective basal and 167.96 % of respective basal and 125.41 % of respective basal and 206.04 % of respective basal and 42.18 % of respective basal and 167.18 % of respective basal
- 5-HT release, MEAN (T2 h-T2 h 30): 106.16 % of respective basal
- 5-HT release, individual animals (T2 h-T2 h 30): 111.34 % of respective basal and 124.56 % of respective basal and 108.53 % of respective basal and 74.72 % of respective basal and 123.51 % of respective basal and 215.61 % of respective basal and 33.60 % of respective basal and 57.37 % of respective basal
- 5-HT release, MEAN (T3 h 30-T4 h): 133.06 % of respective basal

From patent US20250109127A1, “METHODS OF USE OF PHENOXYPROPYLAMINE COMPOUNDS TO TREAT DEPRESSION” (Minerva Neurosciences, Inc., priority 2013, published 2025)
